# Measurements from the supplement of paper PMC11451515.
# Test system: P12-Ichikawa
# Assay: cell viability relative to DMSO control; higher = less cytotoxic
# Conditions: 48 h
# Outline: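 Viability was expressed as a per-plate percentage of DMSO wells, with cell-free wells as background. Leukemia cells (NOMO1 or SEM at 500 cells/well, P12-Ichikawa at 1000 cells/well) were adapted for at least four passages in each medium and seeded in 1536-well plates (5 μl). Library compounds in DMSO were pin-dosed over an 11-point threefold series from 47 μM to 0.79 nM, and CellTiter-Glo One luminescence was read after 48 h at 37°C.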
# [1] = HPLM + 10% dialyzed FBS, 0.000781 µM
# [2] = HPLM + 10% dialyzed FBS, 0.00234 µM
# [3] = HPLM + 10% dialyzed FBS, 0.00702 µM
# [4] = HPLM + 10% dialyzed FBS, 0.0211 µM
# [5] = HPLM + 10% dialyzed FBS, 0.0632 µM
# [6] = HPLM + 10% dialyzed FBS, 0.19 µM
# [7] = HPLM + 10% dialyzed FBS, 0.569 µM
# [8] = HPLM + 10% dialyzed FBS, 1.71 µM
# [9] = HPLM + 10% dialyzed FBS, 5.12 µM
# [10] = HPLM + 10% dialyzed FBS, 15.4 µM
# [11] = HPLM + 10% dialyzed FBS, 46.1 µM
# [12] = RPMI 5 mM glucose + 10% FBS, 0.000781 µM
# [13] = RPMI 5 mM glucose + 10% FBS, 0.00234 µM
# [14] = RPMI 5 mM glucose + 10% FBS, 0.00702 µM
# [15] = RPMI 5 mM glucose + 10% FBS, 0.0211 µM
# [16] = RPMI 5 mM glucose + 10% FBS, 0.0632 µM
# [17] = RPMI 5 mM glucose + 10% FBS, 0.19 µM
# [18] = RPMI 5 mM glucose + 10% FBS, 0.569 µM
# [19] = RPMI 5 mM glucose + 10% FBS, 1.71 µM
# [20] = RPMI 5 mM glucose + 10% FBS, 5.12 µM
# [21] = RPMI 5 mM glucose + 10% FBS, 15.4 µM
# [22] = RPMI 5 mM glucose + 10% FBS, 46.1 µM
# [23] = RPMI 5 mM glucose + 10% dialyzed FBS, 0.000781 µM
# [24] = RPMI 5 mM glucose + 10% dialyzed FBS, 0.00234 µM
# [25] = RPMI 5 mM glucose + 10% dialyzed FBS, 0.00702 µM
# [26] = RPMI 5 mM glucose + 10% dialyzed FBS, 0.0211 µM
# [27] = RPMI 5 mM glucose + 10% dialyzed FBS, 0.0632 µM
# [28] = RPMI 5 mM glucose + 10% dialyzed FBS, 0.19 µM
# [29] = RPMI 5 mM glucose + 10% dialyzed FBS, 0.569 µM
# [30] = RPMI 5 mM glucose + 10% dialyzed FBS, 1.71 µM
# [31] = RPMI 5 mM glucose + 10% dialyzed FBS, 5.12 µM
# [32] = RPMI 5 mM glucose + 10% dialyzed FBS, 15.4 µM
# [33] = RPMI 5 mM glucose + 10% dialyzed FBS, 46.1 µM
Structure (SMILES),cell viability [1] [%],cell viability [2] [%],cell viability [3] [%],cell viability [4] [%],cell viability [5] [%],cell viability [6] [%],cell viability [7] [%],cell viability [8] [%],cell viability [9] [%],cell viability [10] [%],cell viability [11] [%],cell viability [12] [%],cell viability [13] [%],cell viability [14] [%],cell viability [15] [%],cell viability [16] [%],cell viability [17] [%],cell viability [18] [%],cell viability [19] [%],cell viability [20] [%],cell viability [21] [%],cell viability [22] [%],cell viability [23] [%],cell viability [24] [%],cell viability [25] [%],cell viability [26] [%],cell viability [27] [%],cell viability [28] [%],cell viability [29] [%],cell viability [30] [%],cell viability [31] [%],cell viability [32] [%],cell viability [33] [%]
CN[S+](=O)([O-])Cc1ccc2[nH]cc(CCN(C)C)c2c1,110,122,112,118,123,126,123,123,116,120,126,115,123,125,116,128,119,131,136,125,130,131,106,113,113,122,119,121,128,131,121,127,121
Oc1ccc2c3c1O[C@H]1c4[nH]c5c(c4C[C@@]4(O)[C@@H](C2)N(CC2CC2)CC[C@]314)C[C@@]1(O)[C@H]2Cc3ccc(O)c4c3[C@@]1(CCN2CC1CC1)[C@H]5O4,100,111,113,117,120,118,130,121,120,119,121,114,123,118,122,122,124,115,126,127,137,132,97.8,110,113,112,120,123,117,122,119,129,134
CC(=O)O.Cc1c(-c2ccc(O)cc2)n(Cc2ccc(OCCN3CCCCCC3)cc2)c2ccc(O)cc12,103,101,99.2,98.1,101,111,101,106,106,101,100,92.3,92.5,92.4,87.6,99.3,103,96.1,109,101,100,101,89.2,94.5,96.3,94.5,92.5,98.9,98.3,95.4,113,104,100
CC(=O)O[C@H]1C(=O)[C@]2(C)[C@@H](O)C[C@H]3OC[C@@]3(OC(C)=O)C2[C@H](OC(=O)C4=CC=CC=C4)[C@]5(O)C[C@H](OC(=O)[C@H](O)[C@@H](NC(=O)C6=CC=CC=C6)C7=CC=CC=C7)\C(=C1/C5(C)C)C (stereo partly specified),93.3,42.1,35.2,27.6,31.9,27.8,25.7,27.1,25,19.1,15.3,88.3,48,34.3,24,26.1,24.8,27.8,23,26,19.3,14.3,95.8,58.3,41.4,31.5,37.7,39.7,35.9,38.8,37.7,31.9,25.9
C/C=C1\NC(=O)[C@H]2CSSCC/C=C\[C@H](CC(=O)N[C@H](C(C)C)C(=O)N2)OC(=O)[C@H](C(C)C)NC1=O,109,102,104,106,2.7,2.94,2.82,2.88,4.38,1.48,2.87,97.9,110,111,110,2.34,2.68,2.61,2.36,3.14,1.58,2.72,98.9,106,108,107,3.38,3.46,3.34,2.6,3.15,3.95,2.58
OC(=O)C1=CC=C(NC2=NC3=C(C\N=C(/C4=CC(=CC=C34)Cl)C5=C(F)C=CC=C5F)C=N2)C=C1,93.9,101,97.8,105,104,89.4,77.6,48.5,27.1,18.6,18.3,95.8,99.1,106,107,110,93.9,74.4,48.9,27,24.7,25.1,98.1,95.1,96.2,91.4,101,95.4,75.7,52.3,36.6,32.6,30.7
Cc1cc(OCCCc2c(C(=O)O)n(Cc3cccnc3)c3c(-c4c(COc5ccc(N6CCN([S+](C)(=O)[O-])CC6)cc5)nn(C)c4C)cccc23)cc(C)c1Cl,99.6,100,100,97,99.8,97.4,92.9,96.1,86.9,88.1,80.4,92.4,102,96.6,102,101,95.6,85.9,89.3,86.2,88.3,77.1,91.3,95,99.3,97.5,102,98.4,90.9,93.5,93.1,78.2,82.9
